In patent US20070149779A1, “PRIMIDONE PROCESS AND COMPOSITIONS” (priority 2005, published 2007):
In brackets after ≈: the same amount, converted by molar mass.

Experiments:
[1] = Bulk density, tapped density and Carr index of primidone and primidone granules; format: physicochemical; conditions: for Carr Index: percent compressibility from tapped and bulk density
Text: “Carr index” as used herein is defined as the percent compressibility, that is a percentage ratio of the difference between tapped bulk density and initial bulk density to tapped bulk density.

[2] = cited from earlier work

| SMILES | Bulk Density, (Db) [1] | Tapped density (Dt) [1] | Carr Index [1] | solubility in water [2] |
| --- | --- | --- | --- | --- |
| CCC1(c2ccccc2)C(=O)NCNC1=O [Primidone Particle size D90 7.1 μm] | 0.221 g/mL | 0.307 g/mL | 28% |  |
| CCC1(c2ccccc2)C(=O)NCNC1=O [Primidone Particle size D90 307 μm] | 0.850 g/mL | 0.905 g/mL | 6.1% |  |
| CCC1(c2ccccc2)C(=O)NCNC1=O [Primidone, 5-ethyldihydro-5-phenyl-4,6 (1H, 5H pyrimidinedione)] |  |  |  | 600 µg/mL (≈ 2750 µM) |
